The results in this text go back to US11352340B2, “Pyridine and pyridimine compounds as PI3K-gamma inhibitors” (Incyte Corporation, priority 2016, dated 2022).

Experiment [1] relates to Phosphorylated Ribosomal Protein S6 (RPS6) in THP-1 cells. The experiment can be described thus: THP-1 RPS6 ELISA Assay. The conditions noted are these: MCP-1 stimulated, phospho-RPS6 ELISA, read-out: THP p-RPS6 ELISA IC50. The format is cell-based, Human. As to the method:
Example A. THP-1 RPS6 ELISA Assay
To measure the Phosphorylated Ribosomal Protein S6 (RPS6) in cell lysates, THP-1 cells (Human Acute Monocytic Leukemia) are purchased from ATCC (Manassas, Va.) and maintained in RPMI with 10% FBS (Gibco/Life Technologies, Carlsbad, Calif.). For the assay, THP-1 cells are serum starved overnight in RPMI, then plated in RPMI (2×10^5 cells/well in 90 μL) into 96-well flat-bottom tissue culture treated plates (Corning, Corning, N.Y.), in the presence or absence of a concentration range of test compounds. Covered plates are incubated for 2 hours at 37° C., 5% CO2 then treated with or without 10 nM MCP-1 (MYBioSource, San Diego, Calif.) for 15 minutes at 37° C., 5% CO2. Plates are centrifuged at 1600 RPM and supernatants are removed. Cells are lysed in Lysis Buffer (Cell Signaling, Danvers, Mass.) with Protease Inhibitor (Calbiochem/EMD, Germany), PMSF (Sigma, St Louis Mo.), HALTS (Thermo Fisher, Rockford, Ill.) for 30 min on wet ice. Cell lysates are frozen at −80° C. before testing. The lysates are tested in the Human/Mouse/Rat Phospho-RPS6 ELISA (R&D Systems, Inc. Minn, Minn.). The plate is measured using a microplate reader (SpectraMax M5—Molecular Devices, LLC Sunnyvale, Calif.) set to 450 nm with a wavelength correction of 540. IC50 determination is performed by fitting the curve of inhibitor percent inhibition versus the log of the inhibitor concentration using the GraphPad Prism 5.0 software.

The target in experiment [2] is PI3Kγ (p110γ) Recombinant Human Protein (Homo sapiens (Human), UniProt P48736). Put plainly: PI3K-γ Scintillation Proximity Assay. It is filed as biochemical. As to conditions: read-out: PI3K-gamma SPA IC50. In short, it runs like this: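 Radiometric SPA: reaction at room temperature for 120 min using 2 μM ATP with [γ-33P]ATP tracer, 20 μM PIP2 substrate and 13 nM human PI3Kγ (MOPS pH 6.7, MgCl2, DTT, CHAPS; 2% DMSO). EDTA quench with WGA beads, scintillation count, and IC50 fit of percent-of-control activity.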
Chain of PI3Kγ (p110γ) Recombinant Human Protein (P48736 whole entry): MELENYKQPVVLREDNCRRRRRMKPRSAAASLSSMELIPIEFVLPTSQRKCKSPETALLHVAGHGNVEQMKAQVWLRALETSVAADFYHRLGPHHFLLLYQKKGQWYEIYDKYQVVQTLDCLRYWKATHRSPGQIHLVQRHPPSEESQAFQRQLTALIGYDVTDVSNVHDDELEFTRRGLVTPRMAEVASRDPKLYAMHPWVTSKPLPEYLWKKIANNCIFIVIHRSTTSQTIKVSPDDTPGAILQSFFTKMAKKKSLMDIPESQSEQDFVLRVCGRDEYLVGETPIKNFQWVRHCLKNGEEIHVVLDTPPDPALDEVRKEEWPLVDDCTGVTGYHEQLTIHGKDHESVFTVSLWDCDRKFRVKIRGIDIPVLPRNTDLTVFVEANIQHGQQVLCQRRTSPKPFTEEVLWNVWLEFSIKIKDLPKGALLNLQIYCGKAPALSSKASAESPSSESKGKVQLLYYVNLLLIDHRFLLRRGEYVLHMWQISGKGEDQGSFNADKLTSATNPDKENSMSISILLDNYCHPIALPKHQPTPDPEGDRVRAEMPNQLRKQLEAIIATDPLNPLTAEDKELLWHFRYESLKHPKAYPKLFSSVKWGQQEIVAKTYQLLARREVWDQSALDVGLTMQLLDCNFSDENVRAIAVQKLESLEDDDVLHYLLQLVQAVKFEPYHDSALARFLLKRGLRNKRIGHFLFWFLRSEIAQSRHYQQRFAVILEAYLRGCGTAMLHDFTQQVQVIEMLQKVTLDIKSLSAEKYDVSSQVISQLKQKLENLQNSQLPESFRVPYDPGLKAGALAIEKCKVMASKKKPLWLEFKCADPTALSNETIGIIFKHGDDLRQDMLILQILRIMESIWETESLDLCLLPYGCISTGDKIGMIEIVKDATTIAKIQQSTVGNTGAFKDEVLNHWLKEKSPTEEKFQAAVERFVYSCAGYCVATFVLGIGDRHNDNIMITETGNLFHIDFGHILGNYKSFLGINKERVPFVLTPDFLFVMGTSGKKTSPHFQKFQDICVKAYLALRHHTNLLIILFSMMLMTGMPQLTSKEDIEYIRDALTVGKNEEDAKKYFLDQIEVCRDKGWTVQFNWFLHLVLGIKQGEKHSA

Experiment [3] has as its target PI3Kδ (p110δ/p85α) Recombinant Human Protein (Homo sapiens (Human), UniProt O00329). The experiment can be described thus: PI3Kδ Scintillation Proximity Assay. The format is biochemical. The conditions noted are these: read-out: PI3K-delta SPA IC50. In a few lines:
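IC50 was fitted to percent solvent-control activity from SPA scintillation counts after WGA bead capture of 33P-labelled lipid product. Reaction: 120 min, room temperature, 3.4 nM p110δ/p85α, 20 μM PIP2, 2 μM ATP with tracer, MOPS pH 6.7 buffer containing MgCl2, DTT, CHAPS, 2% DMSO.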

Where a name gives a salt, the structure may show the parent alone. Read-outs that look alike come from different tables or passages of the source.

Chain of PI3Kδ (p110δ/p85α) Recombinant Human Protein (O00329 whole entry): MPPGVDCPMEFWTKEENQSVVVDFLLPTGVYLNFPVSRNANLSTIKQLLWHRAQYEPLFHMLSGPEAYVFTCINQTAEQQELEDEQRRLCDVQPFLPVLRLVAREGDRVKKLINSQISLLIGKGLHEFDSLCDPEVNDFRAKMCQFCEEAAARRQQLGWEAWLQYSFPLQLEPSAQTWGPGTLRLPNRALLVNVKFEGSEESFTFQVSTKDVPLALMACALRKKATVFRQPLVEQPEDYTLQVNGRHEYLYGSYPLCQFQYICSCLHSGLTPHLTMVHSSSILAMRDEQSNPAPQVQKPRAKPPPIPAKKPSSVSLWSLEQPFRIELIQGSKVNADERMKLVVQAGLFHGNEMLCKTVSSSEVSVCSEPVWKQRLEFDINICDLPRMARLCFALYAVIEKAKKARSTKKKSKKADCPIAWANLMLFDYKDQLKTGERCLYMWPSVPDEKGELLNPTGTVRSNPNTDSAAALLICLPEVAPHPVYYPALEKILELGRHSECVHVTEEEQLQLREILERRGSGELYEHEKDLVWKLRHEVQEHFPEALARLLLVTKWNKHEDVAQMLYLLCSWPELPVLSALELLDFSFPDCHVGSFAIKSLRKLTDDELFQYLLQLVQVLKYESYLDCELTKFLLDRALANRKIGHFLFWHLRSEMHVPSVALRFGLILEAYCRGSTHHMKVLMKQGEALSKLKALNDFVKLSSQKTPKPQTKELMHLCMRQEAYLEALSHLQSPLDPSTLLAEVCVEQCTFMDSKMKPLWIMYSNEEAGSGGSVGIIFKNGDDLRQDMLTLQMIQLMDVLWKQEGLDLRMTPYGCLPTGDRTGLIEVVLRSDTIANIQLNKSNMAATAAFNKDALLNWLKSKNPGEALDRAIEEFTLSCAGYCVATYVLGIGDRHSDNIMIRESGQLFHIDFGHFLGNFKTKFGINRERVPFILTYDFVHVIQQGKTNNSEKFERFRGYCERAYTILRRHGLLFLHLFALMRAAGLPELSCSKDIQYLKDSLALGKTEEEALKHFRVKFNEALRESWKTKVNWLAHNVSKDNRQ
Chain of PI3Kδ (p110δ/p85α) Recombinant Human Protein (P27986 whole entry partner): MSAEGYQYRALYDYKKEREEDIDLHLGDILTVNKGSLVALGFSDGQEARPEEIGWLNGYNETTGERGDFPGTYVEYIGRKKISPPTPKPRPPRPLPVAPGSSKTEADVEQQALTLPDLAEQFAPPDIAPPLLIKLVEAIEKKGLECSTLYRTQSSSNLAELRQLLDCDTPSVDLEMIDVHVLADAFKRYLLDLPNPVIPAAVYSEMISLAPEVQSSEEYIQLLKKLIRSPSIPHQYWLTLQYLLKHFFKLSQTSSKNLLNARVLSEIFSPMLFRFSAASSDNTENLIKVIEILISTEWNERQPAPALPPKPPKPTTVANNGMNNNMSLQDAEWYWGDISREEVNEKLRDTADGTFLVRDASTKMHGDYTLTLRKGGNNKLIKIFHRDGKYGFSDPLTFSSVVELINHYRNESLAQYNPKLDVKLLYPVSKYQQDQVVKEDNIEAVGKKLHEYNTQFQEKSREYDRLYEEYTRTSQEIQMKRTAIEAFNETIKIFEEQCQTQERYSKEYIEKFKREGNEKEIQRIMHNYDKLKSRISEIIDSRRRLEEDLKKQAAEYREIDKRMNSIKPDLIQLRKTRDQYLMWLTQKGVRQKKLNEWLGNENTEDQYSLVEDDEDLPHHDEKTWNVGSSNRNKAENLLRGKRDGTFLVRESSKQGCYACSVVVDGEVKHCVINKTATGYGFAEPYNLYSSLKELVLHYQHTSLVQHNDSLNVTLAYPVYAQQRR

For the molecule `COc1cncc(-c2ccnc(-c3ncc(C)[nH]3)c2)c1` [Example 77, 5-Methoxy-2′-(5-methyl-1H-imidazol-2-yl)-3,4′-bipyridine], the IC50 in experiment [1] (Homo sapiens) was 300 to 1000 nM; in experiment [2] it was no more than 50 nM; in experiment [3], no more than 500 nM.

`CCCCCNc1ncc(-c2cc(-c3cncc(OC)c3)ccn2)[nH]1` [Example 63, 5-(5-Methoxy-3,4′-bipyridin-2′-yl)-N-pentyl-1H-imidazol-2-amine trifluoroacetate salt]: the IC50 was greater than 5000 nM in experiment [1] (Homo sapiens), no more than 500 nM in experiment [2] and greater than 500 nM in experiment [3].

Consider `Cc1[nH]c(-c2cc(-c3cncc(N4CCOCC4)c3)ccn2)nc1C(=O)NC(C)c1cccc(F)c1` (racemic) [Example 277, N-[1-(3-Fluorophenyl)ethyl]-5-methyl-2-(5-morpholin-4-yl-3,4′-bipyridin-2′-yl)-1H-imidazole-4-carboxamide trifluoroacetate salt], for which the IC50 in experiment [1] (Homo sapiens) is no more than 300 nM; in experiment [2], no more than 50 nM; in experiment [3], no more than 50 nM.

`O=S(=O)(C1CC1)n1cc(-c2ccnc(-c3ncc(-c4ccccc4)[nH]3)c2)cn1` [Example 46, 4-(1-(Cyclopropylsulfonyl)-1H-pyrazol-4-yl)-2-(5-phenyl-1H-imidazol-2-yl)pyridine trifluoroacetate salt]: the IC50 in experiment [1] (Homo sapiens) is greater than 5000 nM; in experiment [2], no more than 100 nM; in experiment [3], no more than 500 nM.

For `COc1cncc(-c2ccnc(-c3cnc(NCC4CCC4)[nH]3)c2)c1` [Example 65, N-(Cyclobutylmethyl)-5-(5-methoxy-3,4′-bipyridin-2′-yl)-1H-imidazol-2-amine trifluoroacetate salt], the IC50 is greater than 5000 nM in experiment [1] (Homo sapiens), no more than 500 nM in experiment [2] and greater than 500 nM in experiment [3].

Turning to `Cc1[nH]c(-c2cc(-c3cncc(S(C)(=O)=O)c3)ccn2)nc1C(=O)N1CC(C#N)C1` [Example 248, 1-({5-Methyl-2-[5-(methylsulfonyl)-3,4′-bipyridin-2′-yl]-lH-imidazol-4-yl}carbonyl)azetidine-3-carbonitrile], the IC50 is 1000 to 5000 nM in experiment [1], no more than 50 nM in experiment [2] and no more than 50 nM in experiment [3].

Consider `Cc1nc(-c2cc(-c3cncc(C(=O)N4CCCC4)c3)ccn2)[nH]c1C` [Example 151, (2′-(4,5-Dimethyl-1H-imidazol-2-yl)-3,4′-bipyridin-5-yl)(pyrrolidin-1-yl)methanone], for which the results for the IC50 in experiment [1] (Homo sapiens), in experiment [2] and in experiment [3] were no more than 300 nM, no more than 50 nM and no more than 50 nM, respectively.

Take `CCn1cc(-c2ccnc(-c3ncc(-c4ccccc4)[nH]3)c2)cn1` [Example 10, 4-(1-Ethyl-1H-pyrazol-4-yl)-2-(5-phenyl-1H-imidazol-2-yl)pyridine trifluoroacetate salt]: the IC50 was 1000 to 5000 nM in experiment [1] (Homo sapiens), no more than 500 nM in experiment [2] and no more than 500 nM in experiment [3].

Consider `Cc1nc(-c2cc(-c3cncc(C(=O)N4CC[C@H](O)C4)c3)ccn2)[nH]c1C` [Example 146, (S)-(2′-(4,5-Dimethyl-1H-imidazol-2-yl)-3,4′-bipyridin-5-yl)(3-hydroxypyrrolidin-1-yl)methanone], for which the IC50 in experiment [1] (Homo sapiens) was no more than 300 nM; in experiment [2], no more than 50 nM; in experiment [3], no more than 50 nM.

Consider `COC1CCN(C(=O)c2cncc(-c3ccnc(-c4nc(C)c(C)[nH]4)c3)c2)C1` (racemic) [Example 174, 2′-(4,5-Dimethyl-1H-imidazol-2-yl)-5-[(3-methoxypyrrolidin-1-yl)carbonyl]-3,4′-bipyridine trifluoroacetate salt], for which the figures for the IC50 in experiment [1] (Homo sapiens), in experiment [2] and in experiment [3] were no more than 300 nM, no more than 50 nM and no more than 50 nM, respectively.

Turning to `Cc1nc(-c2cc(-c3cncc(C(=O)NCc4ccccc4)c3)ccn2)[nH]c1C` [Example 192, N-Benzyl-2′-(4,5-dimethyl-1H-imidazol-2-yl)-3,4′-bipyridine-5-carboxamide trifluoroacetate salt], the IC50 was 1000 to 5000 nM in experiment [1] (Homo sapiens), no more than 100 nM in experiment [2] and no more than 100 nM in experiment [3].

On to `COc1cncc(-c2ccnc(-c3ncc(C4CC4)[nH]3)c2)c1` [Example 86, 2′-(5-Cyclopropyl-1H-imidazol-2-yl)-5-methoxy-3,4′-bipyridine], for which the IC50 in experiment [1] (Homo sapiens) is 300 to 1000 nM; in experiment [2] it was no more than 50 nM; in experiment [3], no more than 500 nM.

For the molecule `Cc1[nH]c(-c2cc(-c3cnn(Cc4ccc(Cl)cc4)c3)ccn2)nc1C(=O)N[C@H]1CCOC1` [Example 295], the IC50 is 1000 to 5000 nM in experiment [1] (Homo sapiens), no more than 50 nM in experiment [2] and no more than 500 nM in experiment [3].

Take `Cc1[nH]c(-c2cc(-c3cncc(S(C)(=O)=O)c3)ccn2)nc1C(=O)N1CCOCC1` [Example 244, 2′-[5-Methyl-4-(morpholin-4-ylcarbony1)-1H-imidazol-2-yl]-5-(methylsulfony1)-3,4′-bipyridine]: the IC50 in experiment [1] was greater than 5000 nM; in experiment [2], no more than 100 nM; in experiment [3], no more than 50 nM.

Take `Cc1[nH]c(-c2cc(-c3cncc(N4CCOCC4)c3)ccn2)nc1C(=O)N[C@H]1CCOC1` [Example 271, 5-Methyl-2-(5-morpholin-4-yl-3,4′-bipyridin-2′-yl)-N-[(3S)-tetrahydrofuran-3-yl]-1H-imidazole-4-carboxamide trifluoroacetate salt]: the IC50 in experiment [1] (Homo sapiens) is 300 to 1000 nM; in experiment [2], no more than 50 nM; in experiment [3], no more than 50 nM.

`COc1cncc(-c2ccnc(-c3nnc(Nc4ccccc4)[nH]3)c2)c1` [Example 70, 5-(5-Methoxy-3,4′-bipyridin-2′-yl)-N-phenyl-4H-1,2,4-triazol-3-amine trifluoroacetate salt]: the results for the IC50 in experiment [1] (Homo sapiens), in experiment [2] and in experiment [3] were greater than 5000 nM, no more than 500 nM and no more than 500 nM, respectively.

As for `CCOC(=O)c1nc(-c2cc(-c3cncc(S(C)(=O)=O)c3)ccn2)[nH]c1C` [Example 241, Ethyl 5-methyl-2-[5-(methylsulfonyl)-3,4′-bipyridin-2′-yl]-1H-imidazole-4-carboxylate], the figures for the IC50 in experiment [1] (Homo sapiens), in experiment [2] and in experiment [3] were 300 to 1000 nM, no more than 100 nM and no more than 50 nM, respectively.

As for `Nc1cncc(-c2ccnc(-c3ncc(-c4ccccc4)[nH]3)c2)c1` [Example 127, 2′-(5-Phenyl-1H-imidazol-2-yl)-3,4′-bipyridin-5-amine Trifluoroacetate Salt], the figures for the IC50 in experiment [1] (Homo sapiens), in experiment [2] and in experiment [3] were 1000 to 5000 nM, no more than 50 nM and no more than 50 nM, respectively.

As for `Cc1nc(-c2cc(-c3cncc(C(=O)N4CCCCC4C)c3)ccn2)[nH]c1C` (racemic) [Example 190, 2′-(4,5-Dimethyl-1H-imidazol-2-yl)-5-[(2-methylpiperidin-1-yl)carbonyl]-3,4′-bipyridine trifluoroacetate salt], the IC50 in experiment [1] (Homo sapiens) was 300 to 1000 nM; in experiment [2], no more than 50 nM; in experiment [3], no more than 100 nM.

`CS(=O)(=O)c1cncc(-c2ccnc(-c3ncc(C4CCC4)[nH]3)c2)c1` [Example 113, 2′-(5-Cyclobutyl-1H-imidazol-2-yl)-5-(methylsulfonyl)-3,4′-bipyridine trifluoroacetate salt]: the figures for the IC50 in experiment [1] (Homo sapiens), in experiment [2] and in experiment [3] were no more than 300 nM, no more than 50 nM and no more than 50 nM, respectively.

For `N#Cc1ccccc1Cn1cc(-c2ccnc(-c3ncc(-c4ccccc4)[nH]3)c2)cn1` [Example 6, 2-((4-(2-(5-Phenyl-1H-imidazol-2-yl)pyridin-4-yl)-1H-pyrazol-1-yl)methyl)benzonitrile trifluoroacetate salt], the IC50 in experiment [1] (Homo sapiens) is greater than 5000 nM; in experiment [2], no more than 100 nM; in experiment [3] it was no more than 500 nM.

`COc1cncc(-c2ccnc(-c3ncc(-c4ccccc4)[nH]3)c2)c1` [Example 19, 5-Methoxy2′-(5-phenyl-1H-imidazol-2-yl)-3,4′-bipyridin trifluoroacetate salt]: the IC50 was 1000 to 5000 nM in experiment [1] (Homo sapiens), no more than 50 nM in experiment [2] and no more than 50 nM in experiment [3].

As for `COc1cncc(-c2ccnc(-c3ncc(C(C)C)[nH]3)c2)c1` [Example 84, 2′-(5-Isopropyl-1H-imidazol-2-yl)-5-methoxy-3,4′-bipyridine trifluoroacetate salt], the IC50 in experiment [1] (Homo sapiens) was 1000 to 5000 nM; in experiment [2], no more than 100 nM; in experiment [3], no more than 500 nM.
